In assay [1] the test system is methicillin-resistant S. aureus (ATCC 43300). Description: MIC and MBC, broth dilution, MRSA ATCC 43300. The format is cell-based. The settings on record: Staphylococcus aureus. The gist of the method:
(§1)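 Compounds, in 2.5% tween-80/2.5% DMSO, serially diluted in MH broth over 32–0.01 µg/mL with 5 × 10^5 CFU/mL inoculum, triplicates, 22–26 h at 37 °C; MIC = lowest concentration with no visible growth. MBC from plating non-turbid wells on MH agar, further 22–26 h at 37 °C.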

The test system of assay [2] is S. aureus (ATCC 29213). In words: MIC and MBC, broth dilution, S. aureus ATCC 29213. The format is cell-based. As to conditions: Staphylococcus aureus, ATCC29213. The gist of the method:
as §1

Assay [3] deals with S. aureus (AD3). Description: MIC and MBC, broth dilution, S. aureus AD3. The format is cell-based. As to conditions: Staphylococcus aureus; S. aureus AD3 (clinical strain). An outline of the steps: as §1
The subject of assay [4] is S. aureus (144). In words: MIC and MBC, broth dilution, S. aureus 144. The format is cell-based. The settings on record: Staphylococcus aureus; S. aureus 144 (clinical strain). The gist of the method:
as §1

The test system of assay [5] is 50S ribosome. In words: SPR interaction and affinity analysis. It counts as binding, S. aureus ATCC 43300. The settings on record: 4 °C. An outline of the steps: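 50S subunit purified from S. aureus ATCC 43300 by sucrose cushion/gradient; compounds (100 μM in DMSO) photo-cross-linked on sensor chip. Ribosome flowed at 200–3200 nM in PBST pH 7.4, 4 °C, 600 s association, 360 s dissociation. KD = Kd/Ka from 1:1 Langmuir fit with mass transfer.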

Assay [6] deals with MRSA. Description: Neutropenic murine thigh infection model. As to conditions: 20 mg/kg intravenously, 24 h, compared to the no-drug control group. The format is in vivo, mice. As for the experimental part:
The neutropenic murine thigh infection model experiment was performed as described in the literature. Six-week-old SPF-ICR female mice weighing 24–28 g were used for this study. The mice were injected with cyclophosphamide (Mead Johnson Pharmaceuticals, Evansville, Indiana—IN, USA) at a dose of 150 mg/kg 4 days and at a dose of 100 mg/kg 1 day before the experiment to reduce neutrophils and achieve immunosuppression (<0.1 × 10^9/L). A total of 0.1 mL MH broth (MRSA concentration approximately 10^7 CFU/mL) was injected into the posterior thigh of mice to establish the infection model. After the thighs of the mice were infected for 2 h, these mice were randomly divided into 3 groups (3 per group). […] A total of 24 h after the completion of the drug, the mice were euthanized and their thigh tissues were collected. Then, their thigh tissues were weighed and homogenized, respectively, in 3 mL of iced sterile saline. Tissue homogenate was serially diluted 10-fold and plated on MH agar. The resulting bacterial colonies were determined after incubation for 24 h.

Assay [7] has as its system MRSA ATCC 43300. Further details: method as in PMID 33137559. The settings on record: cited from earlier work.
The target of assay [8] is CYP3A4 (Homo sapiens, UniProt P08684). As to conditions: read-out: IC50 CYP3A4, cited from earlier work.
Sequence of CYP3A4 (P08684 whole entry): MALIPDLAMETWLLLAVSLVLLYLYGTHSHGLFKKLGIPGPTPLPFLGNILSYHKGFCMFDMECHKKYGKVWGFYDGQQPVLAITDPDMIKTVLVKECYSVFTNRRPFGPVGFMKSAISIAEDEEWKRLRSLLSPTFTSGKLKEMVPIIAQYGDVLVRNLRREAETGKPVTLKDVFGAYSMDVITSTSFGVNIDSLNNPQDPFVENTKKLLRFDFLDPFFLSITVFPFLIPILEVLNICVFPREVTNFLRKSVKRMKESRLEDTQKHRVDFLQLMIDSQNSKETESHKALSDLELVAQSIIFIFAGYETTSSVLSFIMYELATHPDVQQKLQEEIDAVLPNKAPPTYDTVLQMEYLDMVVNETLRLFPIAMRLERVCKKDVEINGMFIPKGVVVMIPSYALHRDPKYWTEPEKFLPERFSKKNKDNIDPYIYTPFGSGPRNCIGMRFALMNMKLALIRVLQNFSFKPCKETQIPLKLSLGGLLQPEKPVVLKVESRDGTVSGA

≈ marks a conversion by molar mass, not a printed value. Where two headings read alike, the source gives them in different places.

With `C=C[C@]1(C)C[C@@H](OC(=O)CSCCN(CC)CC)[C@]2(C)[C@H](C)CC[C@]3(CCC(=O)[C@H]32)[C@@H](C)[C@@H]1O` [Tiamulin, tiamulin, reference compound], the MBC in assay [1] stood at 0.25 µg/mL (≈ 0.506 µM); in assay [2], 1 µg/mL (≈ 2.03 µM); in assay [3], 1 µg/mL (≈ 2.03 µM); in assay [4], 8 µg/mL (≈ 16.2 µM). Moreover, the MIC is 0.25 µg/mL (≈ 0.506 µM) in assay [1], 0.5 µg/mL (≈ 1.01 µM) in assay [2], 1 µg/mL (≈ 2.03 µM) in assay [3] and 1 µg/mL (≈ 2.03 µM) in assay [4]. For the same molecule, the Avg ka in assay [5] (1:1 Langmuir binding) amounted to 121 M⁻¹ s⁻¹. The Avg kd in assay [5] (1:1 Langmuir binding) was determined as 3.03e-06 s⁻¹. The molecule further displayed a Kd in assay [5] (KD = Kd/Ka) of 25 nM. The “reduction of MRSA load in thigh” value in assay [6] is listed as ~ 0.6 log10 CFU/mL. The PAE in assay [7] (2× MIC) was 1.65 h; in assay [7] (4× MIC), 2.04 h. The IC50 in assay [8] and in assay [8] (converted with MW) was 1640 nM in each case.

(Values after article PMC8838415, “Discovery of Novel Pleuromutilin Derivatives as Potent Antibacterial Agents for the Treatment of MRSA Infection” (Molecules, 2022).)
